Like-named read-outs stand apart in the source and are kept apart here.
Key:
Format in all cases: cell-based
[1] = tested on: P. aeruginosa ATCC 15442; experiment: Preservation stress test, example formulation 1 (standard emulsion O/W); settings: 1% active substance
Experimental: (§1) Preservation stress tests (PSTs) were carried out in order to determine the preserving activity of the diols. In the preservation stress test, this is simulated through artificial loadings with microorganisms. These can either be inoculated as mixed population or individually in mixtures independent of one another. The inoculated product samples are incubated under defined conditions and, after defined times, samples are taken in order to determine the germ loading. In the case of adequate preservation, the number of microorganisms should, depending on the type, either decrease or remain constant in order to satisfy the requirements specified, e.g. in Ph. Eur. 6.0. To investigate the preserving effect of the diols, application-typical amounts of the diols were incorporated into example formulations. […] [table] These example formulations were used to prepare various mixtures which each comprised 1% active substance or comprised water instead of the active substance as placebo mixtures. These mixtures were in each case inoculated with the test germs such that a germ loading of 10^5-10^6 CFU/g was present in the test mixture. The bacteria were either used individually for the inoculation or as a mixed culture. To determine the starting germ count, immediately after inoculation, an aliquot was taken, diluted in dilution medium (phosphate buffer, 0.07 molar pH 7.4 (+/−0.2), with 1% Tween 80+0.3% soya lecithin), and the surviving germ count was determined in the dilution stages 10^−1 to 10^−3. The inoculated product samples then incubated for a total of 28 d at 20-25° C. After 2 d, 7 d, 14 d and after 28 d, aliquots were taken and diluted in dilution medium (phosphate buffer, 0.07 molar pH 7.4 (+/−0.2), with 1% Tween 80+0.3% soya lecithin). The surviving germ counts were determined in the dilution stages 10^−1 to 10^−4. The reference point taken for determining the reduction in germ count was the respective initial value of the sample. The results were given as logarithmic reductions.

[2] = tested on: C. albicans ATCC 10231; experiment: as above; settings: 1% active substance
Experimental: as §1

[3] = tested on: A. niger ATCC 16404; experiment: as above; settings: 1% active substance
Experimental: as §1

[4] = tested on: E. coli ATCC 10536; experiment: as above; settings: 1% active substance
Experimental: as §1

[5] = tested on: S. aureus ATCC 6538; experiment: as above; settings: 1% active substance
Experimental: as §1

[6] = tested on: P. aeruginosa NCIMB 10421; experiment: Microstatic activity, MIC in tryptone soy broth; settings: Pseudomonas aeruginosa, NCIMB10421, 30° C., 48 hours
Experimental: (§2) For this, in each case a 40 percent strength by weight solution of a diol in propylene glycol was prepared at 60° C. This solution was diluted with a double-strength soy solution (double-strength tryptone soy broth) as nutrient medium in the volume ratio 1:1. Further dilution with soy solution produced solutions with the following concentrations: 400 000 ppm (40%), 200 000 ppm (20%), 100 000 ppm (10%), 50 000 ppm (5%), 25 000 ppm (2.5%), 12 500 ppm (1.25%), 6250 ppm (0.625%), 3125 ppm (0.3125%). Pure soy solution was used as negative control. The positive control used was a solution of 5 ml of soy solution which has been treated with 0.1 ml of the respective microorganism. The test solutions consisted of 5 ml of the above-described soy solutions of the diols in the particular concentration which have been mixed with 0.1 ml of the respective microorganism. The samples and controls were incubated in the case of the bacteria at 30° C. for 48 hours, and in the case of fungi over 5 days at 25° C. In each case, the MIC (Minimum Inhibitory Concentration) value was determined. This value indicates the minimum concentration above which the growth of the microorganisms was visibly hindered compared to the corresponding sample without addition of the diol. […] For example, this was evident from the occurrence of clouding or visible growth of the microorganism. […] The MIC value stated is a range between the next higher concentration of a positive test and the same and/or lower concentration of a first negative test.

[7] = tested on: P. vulgaris NCIMB 4175; experiment: Microstatic activity, MIC in tryptone soy broth; settings: Proteus vulgaris, NCIMB4175, 30° C., 48 hours
Experimental: as §2

[8] = tested on: S. aureus NCIMB 9578; experiment: Microstatic activity, MIC in tryptone soy broth; settings: Staphylococcus aureus, NCIMB9578, 30° C., 48 hours
Experimental: as §2

[9] = tested on: C. albicans NCPF 3179; experiment: Microstatic activity, MIC in tryptone soy broth; settings: Candida albicans, NCPF3179, 120 h, 25° C., 5 days
Experimental: as §2

[10] = tested on: E. coli NCIMB 8545; experiment: Microstatic activity, MIC in tryptone soy broth; settings: 48 hours; for MIC: Escherichia coli, NCIMB8545, 30° C.
Experimental: as §2

[11] = tested on: series of tested microorganisms (bacteria and fungi); experiment: Microstatic activity, highest MIC from the series of tested microorganisms; settings: highest measured MIC from the series of tested microorganisms
Experimental: The following microorganisms were used;to test the biocidal effect against various bacteria and fungi: In each case, the MIC (Minimum Inhibitory Concentration) value was determined. This value indicates the minimum concentration above which the growth of the microorganisms was visibly hindered compared to the corresponding sample without addition of the diol. The MIC value stated is a range between the next higher concentration of a positive test and the same and/or lower concentration of a first negative test. In the last line of each of the tables below, a “maximum” value is listed. This value indicates the highest measured MIC value in each case from the series of tested microorganisms.

[12] = tested on: A. niger IMI 149007; experiment: Microstatic activity, MIC in tryptone soy broth; settings: Aspergillus niger, IMI149007, 120 h, 25° C., 5 days
Experimental: as §2

[13] = lower limit of MIC range, read-out: MIC value (ppm of diol), from
[14] = upper limit of MIC range, read-out: MIC value (ppm of diol), to
[15] = lower limit, read-out: Maximum MIC value (ppm of diol), from
[16] = upper limit, read-out: Maximum MIC value (ppm of diol), to

SMILES	MIC [6, 13] [mg/mL]	MIC [6, 14] [mg/mL]	MIC [7, 13] [mg/mL]	MIC [7, 14] [mg/mL]	MIC [8, 13] [mg/mL]	MIC [8, 14] [mg/mL]	MIC [9, 13] [mg/mL]	MIC [9, 14] [mg/mL]	MIC [10, 13] [mg/mL]	MIC [10, 14] [mg/mL]	MIC [11, 15] [mg/mL]	MIC [11, 16] [mg/mL]	MIC [12, 13] [mg/mL]	MIC [12, 14] [mg/mL]	also measured
CCCCC(O)CO (centres unmarked) [1,2-Hexanediol, 1,2-hexanediol]															Microbicidal activity given as logarithmic reduction in germ count ([1]; 48 h): 0 log. Red.; Microbicidal activity given as logarithmic reduction in germ count ([1]; 7 d): 1 log. Red.; Microbicidal activity given as logarithmic reduction in germ count ([1]; 14 d): 1 log. Red.; Microbicidal activity given as logarithmic reduction in germ count ([1]; 28 d): ≧3 log. Red.; Microbicidal activity given as logarithmic reduction in germ count ([2]; 48 h): 0 log. Red.; Microbicidal activity given as logarithmic reduction in germ count ([2]; 7 d): 0 log. Red.; Microbicidal activity given as logarithmic reduction in germ count ([2]; 14 d): 0 log. Red.; Microbicidal activity given as logarithmic reduction in germ count ([2]; 28 d): 1 log. Red.; Microbicidal activity given as logarithmic reduction in germ count ([3]; 48 h): 0 log. Red.; Microbicidal activity given as logarithmic reduction in germ count ([3]; 7 d): 0 log. Red.; Microbicidal activity given as logarithmic reduction in germ count ([3]; 14 d): 0 log. Red.; Microbicidal activity given as logarithmic reduction in germ count ([3]; 28 d): 0 log. Red.; Microbicidal activity given as logarithmic reduction in germ count ([4]; 48 h): 0 log. Red.; Microbicidal activity given as logarithmic reduction in germ count ([4]; 7 d): 1 log. Red.; Microbicidal activity given as logarithmic reduction in germ count ([4]; 14 d): 2 log. Red.; Microbicidal activity given as logarithmic reduction in germ count ([4]; 28 d): ≧3 log. Red.; Microbicidal activity given as logarithmic reduction in germ count ([5]; 48 h): 1 log. Red.; Microbicidal activity given as logarithmic reduction in germ count ([5]; 7 d): 1 log. Red.; Microbicidal activity given as logarithmic reduction in germ count ([5]; 14 d): ≧3 log. Red.; Microbicidal activity given as logarithmic reduction in germ count ([5]; 28 d): 5 log. Red.
CC(O)CC(C)O (centres unmarked) [2,4-Pentanediol, 2,4-pentanediol, reference compound]	> 50	≤ 100	> 50	≤ 100	> 50	≤ 100	> 50	≤ 100	> 50	≤ 100					
OCC1(CO)CCCCC1 [DMCH, 1,1-dimethylolcyclohexane]	> 12.5	≤ 25	> 12.5	≤ 25	> 12.5	≤ 25	> 25	≤ 50	> 6.25	≤ 12.5	> 25	≤ 50	> 25	≤ 50	
OCC1(CO)CCCCCCC1 [DMCO, 1,1-dimethylolcyclooctane]	> 12.5	≤ 25	> 6.25	≤ 12.5	> 6.25	≤ 12.5	> 6.25	≤ 12.5	> 3.12	≤ 6.25	> 12.5	≤ 25	> 6.25	≤ 12.5	
OCC1(CO)CC/C=C\CCC1 [DMCOE, 1,1-dimethylolcyclooct-4-ene]	> 12.5	≤ 25	> 3.12	≤ 6.25	> 6.25	≤ 12.5	> 12.5	≤ 25	> 3.12	≤ 6.25	> 12.5	≤ 25	> 12.5	≤ 25	
CC(O)CO (centres unmarked) [Propylene glycol, propylene glycol, reference compound]	> 100		> 100												

Second part, led by results:

MIC [6, 13] [mg/mL]	MIC [6, 14] [mg/mL]	MIC [7, 13] [mg/mL]	MIC [7, 14] [mg/mL]	MIC [8, 13] [mg/mL]	MIC [8, 14] [mg/mL]	MIC [9, 13] [mg/mL]	MIC [9, 14] [mg/mL]	MIC [10, 13] [mg/mL]	MIC [10, 14] [mg/mL]	MIC [11, 15] [mg/mL]	MIC [11, 16] [mg/mL]	MIC [12, 13] [mg/mL]	MIC [12, 14] [mg/mL]	SMILES	also measured
> 50	≤ 100	> 3.12	≤ 6.25	> 12.5	≤ 25	> 25	≤ 50	> 6.25	≤ 12.5	> 50	≤ 100	> 12.5	≤ 25	CCCCC(CC)(CO)CO [BEPD, 2-butyl-2-ethylpropane-1,3-diol]	
> 12.5	≤ 25	> 25	≤ 50	> 25	≤ 50	> 50	≤ 100	> 12.5	≤ 25	> 50	≤ 100	> 50	≤ 100	CCC(C)(CO)CO [EMPD, 2-ethyl-2-methylpropane-1,3-diol]	
> 100		> 50	≤ 100	> 50	≤ 100	> 25	≤ 50	> 25	≤ 50	> 100		> 12.5	≤ 25	CC(C)CCC(CO)(CO)C(C)C [IMBPD, 2-isopropyl-2-(3-methylbutyl)propane-1,3-diol]	
> 25	≤ 50	> 3.12	≤ 6.25	> 12.5	≤ 25	> 50	≤ 100		≤ 3.12	> 50	≤ 100	> 50	≤ 100	CC(CO)(CO)c1ccccc1 [MPPD, 2-methyl-2-phenylpropane-1,3-diol]	MIC value (ppm of diol), from ([10]; 30° C., lower limit of MIC range): >0 ppm

— patent US20120152149A1, “USE OF 1,3-DIOLS AS BIOCIDES” (BASF SE, priority 2009, published 2012)
